Entries after “also recorded” stand apart in the source; their conditions may differ. Blank lines part the entries; values can stand above or below the molecule they belong to.
Assays:
AMPK = test: Western blot of ACC phosphorylation by AMPK in myotubes (FIG. 3F); type: cell-based
Procedure: (§1) After wash with cold DPBS buffer, cells were lysed in RIPA buffer that contained 50 mM Tris-HCl pH 8.0, 150 mM NaCl, 1 mM EDTA, 1 mM EGTA, 1% NP-40, 0.5% sodium deoxycholate, 0.1% SDS, and protease and phosphatase inhibitor cocktails (Roche). Total protein concentrations were measured using a BCA assay (Thermo scientific). Cell lysate (about 80 μg protein) was resolved by SDS-PAGE and blotted onto PVDF membranes. The membranes were probed overnight at 4° C. with appropriate primary antibodies (Cell Signaling Technology) and incubated with secondary fluorescent antibodies (LI-COR Biosciences) for 1 hr at room temperature before imaging by an Odyssey CLx system.

PI5P4Kβ = biological target: T1, PI5P4Kβ (Homo sapiens, UniProt P78356); test: PI5P4Kβ kinase assay, 32P-labelled PI(4,5)P2 product resolved by TLC
T1 sequence (P78356 1-416): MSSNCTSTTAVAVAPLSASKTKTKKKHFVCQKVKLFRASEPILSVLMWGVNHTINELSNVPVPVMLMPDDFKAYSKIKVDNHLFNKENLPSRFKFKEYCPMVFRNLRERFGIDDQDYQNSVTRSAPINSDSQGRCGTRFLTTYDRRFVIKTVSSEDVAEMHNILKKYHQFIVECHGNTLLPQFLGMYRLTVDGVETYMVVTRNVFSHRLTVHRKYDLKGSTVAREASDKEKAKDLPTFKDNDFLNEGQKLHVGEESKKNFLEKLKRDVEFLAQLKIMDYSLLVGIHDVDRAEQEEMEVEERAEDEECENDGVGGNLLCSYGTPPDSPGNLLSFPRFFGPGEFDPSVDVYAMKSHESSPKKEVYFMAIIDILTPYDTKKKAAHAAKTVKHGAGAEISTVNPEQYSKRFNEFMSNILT
Procedure: (§2) Within each well, 10 μl final reaction mixture contains 100 μM PI(5)P, 2 μg/ml PI5P4Kα, 10 μM ATP (in FIG. 1B, ATP concentration varied from 10 μM to 100 μM), 10 mM MgCl2, 0.1% CHAPS and 20 mM HEPES pH 7.3. […] Kinase assay based on PI(4,5)P2 (product) detection was carried out in a 50 μl assay mixture containing 40 μM PI(5)P, 0.4 μg/ml PI5P4Kα, 20 μM ATP (unless otherwise stated), 10 mM MgCl2, 20 mM HEPES pH 7.3, and 10 mCi [γ-^32P]-ATP for 1 h at RT. […] The reaction was terminated by 5 μl 12N HCl. After termination, 175 μl PBS buffer and 380 μl methanol/chloroform mix (1:1, v/v) containing 10 μg/ml bovine brain extract (type I; Folch Fraction I; Sigma Aldrich) were added. The lower organic phase, containing the extracted lipids, was collected and dried under vacuum. The dried lipids were re-suspended in 25 μl methanol/chloroform mix (2:1, v/v), and separated by thin-layer chromatography (TLC). For TLC, heat activated 1% potassium oxalate-coated silica gel 60 plates were used (20 cm×20 cm, Merck), and the running solvent contained water, acetic acid, methanol, acetone, and chloroform (3:32:24:30:64 mix by volume). Radiolabeled lipid product was quantified with a phosphor imager (Bio-Rad Molecular Imager FX). […] The inhibitor was usually incubated with the enzyme at RT for 20 min before the reaction was initiated.

PI5P4Kα [1] = biological target: T2, PI5P4Kα (Homo sapiens, UniProt P48426); test: PI5P4Kα kinase assay, 32P-labelled PI(4,5)P2 product resolved by TLC
T2 sequence (P48426 1-406): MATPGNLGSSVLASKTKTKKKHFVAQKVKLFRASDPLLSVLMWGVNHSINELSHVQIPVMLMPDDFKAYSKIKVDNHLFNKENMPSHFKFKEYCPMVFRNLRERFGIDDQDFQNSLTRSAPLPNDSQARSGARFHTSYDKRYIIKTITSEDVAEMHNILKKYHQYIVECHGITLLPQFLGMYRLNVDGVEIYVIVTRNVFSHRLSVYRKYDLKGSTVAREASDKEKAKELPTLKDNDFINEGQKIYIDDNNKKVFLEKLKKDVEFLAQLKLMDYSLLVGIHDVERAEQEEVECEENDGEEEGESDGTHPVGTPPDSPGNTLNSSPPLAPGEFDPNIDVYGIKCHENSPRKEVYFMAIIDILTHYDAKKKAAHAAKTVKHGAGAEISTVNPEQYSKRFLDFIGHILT
Procedure: as §2

PI5P4Kα [2] = biological target: T2, PI5P4Kα; test: PI5P4Kα in vitro kinase assay based on ADP detection (ADP-Glo), kinetic studies; type: biochemical; set-up: made in house
Procedure: Lipid vesicles [2:1 mixture of DPPS and PI(5)P] were prepared by sonication and extrusion in a buffer containing 0.1% CHAPS, 20 mM HEPES pH 7.3, 200 mM NaCl, 20 mM MgCl2, aliquoted, and stored at −80° C. Immediately before assay, thawed lipid suspension was sonicated and extruded again, and mixed with PI5P4Kα freshly purified in the same buffer. […] 20 nl of library compound (10 mM DMSO solution) was transferred to the well by an Aquarius system (Tecan). The plates were shaken for 30 s. 1 μl ATP solution was then added to initiate the reaction (final concentrations: PI(5)P 100 μM; lipid kinase 2 μg/ml; ATP 40 μM; library compound 20 μM). After incubating at RT in the dark for 1 h, 5 μl ADP-Glom reagent (Promega) was added to stop the reaction. After 40 min further incubation, 10 μl Kinase Detection reagent (Promega) was added. After 30 min, the luminescence was measured with an EnVision Multimode Plate Reader.
In vitro kinase assay based on ADP (product) detection was performed similarly in a white solid-bottom 96-well plate (Corning 3600). Within each well, 10 μl final reaction mixture contains 100 μM PI(5)P, 2 μg/ml PI5P4Kα, 10 μM ATP (in FIG. 1B, ATP concentration varied from 10 μM to 100 μM), 10 mM MgCl2, 0.1% CHAPS and 20 mM HEPES pH 7.3. After reaction, 10 μl ADP-Glo™ reagent and 20 μl Kinase Detection reagent were used for luminescence reading. […]

PI5P4Kα [3] = biological target: T2, PI5P4Kα; test: Competitive fluorescent binding assay with TNP-ATP; set-up: made in house; settings: displacement of 10 μM TNP-ATP from 6.8 μM PI5P4Kα
C2Cl2 myotubes = test: Immunoblot analysis of signaling in C2Cl2 myotubes; type: cell-based, mouse; settings: FIG. 3E
Procedure: BT-474 and MCF7 breast cancer cells, C2Cl2 mouse myoblast cells, and HEK 293T cells were maintained in high-glucose DMEM medium containing 10% FBS. L6 rat myoblast cells were maintained in α-MEM medium containing 10% FBS. For differentiation into myotubes, C2Cl2 cells were kept in DMEM medium containing 2% horse serum for 5 days, and L6 cells were kept in α-MEM medium containing 2% FBS for 7 days. Amino-acid-free DMEM medium was prepared using powder from USBio, and MEM amino acids solution was from Gibco. Media were all supplemented with 100 U/ml penicillin/streptomycin. Cell lines were purchased from ATCC.
as §1

myotubes = test: Glucose consumption and lactate production in myotube culture media; type: cell-based
Procedure: To measure glucose consumption and lactate production, a total of 1×10^5 cells were seeded into each well of a 12-well plate and cultured in the presence of compound for 48 hrs. The culture media were collected and deproteinized by centrifugation using an Amicon Ultra centrifugal filter (3 kDa cut-off), while cells were lysed and used for protein concentration determination by BCA assay. The media were assayed immediately for glucose and lactate levels using colorimetric assay kits from BioVision following the manufacturer's protocols. The values were normalized against protein concentration. All measurements were made in triplicate.

L6 myotubes = test: 2-deoxyglucose uptake; type: cell-based, rat; settings: overnight treatment with 20 μM 7a or 1 mM metformin
Procedure: To measure 2-deoxyglucose (2-DG) uptake, L6 myotubes were treated with compound or DMSO control overnight in the absence of serum in α-MEM. Following treatment, cells were washed twice with KRH buffer (50 mM HEPES pH 7.4, 137 mM NaCl, 4.7 mM KCl, 1.85 mM CaCl2, 1.3 mM MgSO4) containing 0.1% BSA. Residual wash buffer was removed by aspiration. Cells were then incubated for 10 min at 37° C. in a KRH buffer containing 0.1% BSA, 5 mM unlabeled 2-DG and 2 μCi/ml [1,2-^3H(N)]-2-deoxy-D-glucose (PerkinElmer). The uptake was terminated by washing four times with ice-cold KRH buffer containing 0.1% BSA. Nonspecific 2-DG uptake into cells was determined in the presence of 10 μM cytochalasin B, which inhibits glucose transporters, and subtracted. The cells were lysed with 0.05 M NaOH for 2 hrs at 37° C. 10 μl cell lysate was used to quantify protein concentration by BCA assay. The remaining sample was transferred to a scintillation vial containing 3 ml Opti-Fluor liquid scintillation cocktail (PerkinElmer), and radioactivity was determined using a Beckman Coulter LS 6500 scintillation system and normalized against protein concentration.

SMILES: CN1C(=O)[C@@H](CC2CCCCC2)N(C2CCCC2)c2nc(Nc3cc(Cl)c(O)c(Cl)c3)ncc21 [7b, (R)-7-(cyclohexylmethyl)-8-cyclopentyl-2-((3,5-dichloro-4-hydroxyphenyl)amino)-5-methyl-7,8-dihydropteridin-6(5H)-one]
ACC phosphorylation / AMPK activation (AMPK): activated; also recorded: enhanced
potency/affinity for PI5P4Kβ in vitro (PI5P4Kβ): no effect
selectivity between PI5P4Kα and PI5P4Kβ (PI5P4Kβ): more specific for PI5P4Kβ; also recorded: more potent against PI5P4Kβ than PI5P4Kα
potency/affinity for PI5P4Kα in vitro (PI5P4Kα [1]): weaken the affinity

SMILES: CN1C(=O)[C@@H](Cc2ccccn2)N(C2CCCC2)c2nc(Nc3cc(Cl)c(O)c(Cl)c3)ncc21 [7e, (R)-8-cyclopentyl-2-((3,5-dichloro-4-hydroxyphenyl)amino)-7-(pyridine-2-ylmethyl)-5-methyl-7,8-dihydropteridin-6(5H)-one]
Ki (PI5P4Kβ): 20 to 60 nM
Ki (PI5P4Kα [1]): 20 to 60 nM

SMILES: CC[C@@H]1C(=O)N(C)c2cnc(Nc3ccc(C(=O)NC4CCN(C)CC4)cc3OC)nc2N1C1CCCC1 [BI-2536]
ACC phosphorylation / AMPK activation (AMPK): did not increase; also recorded: did not induce

SMILES: CS(=O)(=O)N1CCN(Cc2cc3nc(-c4cccc5[nH]ncc45)nc(N4CCOCC4)c3s2)CC1 [GDC-0941, reference compound]
insulin-induced Akt phosphorylation at Ser-473 (C2Cl2 myotubes): eliminated

SMILES: C[C@@H]1COCCN1c1cc(=O)n2c(n1)N(Cc1cncc(Cl)c1)[C@H](C(F)(F)F)CC2 [SAR405, reference compound]
mTORC1 activation by amino acids (C2Cl2 myotubes): prevented

SMILES: CN(C)C(=N)N=C(N)N [metformin, reference compound]
molar fraction of consumed glucose used for lactate fermentation (myotubes; 48 hours): 41%
lactate accumulated in the media (myotubes; 48 hours after treatment): 8.6 mM
reduction of glucose concentration in the media (myotubes; 48 hours after treatment): 10.6 mM
rate of glucose uptake (labeled 2-deoxyglucose) (L6 myotubes): doubled

The next lines start with results.

Ki (PI5P4Kβ): 80 to 230 nM
Ki (PI5P4Kα [1]): 200 to 700 nM
SMILES: CN1C(=O)[C@@H](CC2CCCC2)N(C2CCCC2)c2nc(Nc3ccc4[nH]nnc4c3)ncc21 [7f, (R)-2-((1H-benzo[d][1,2,3]triazol-5-yl)amino)-8-cyclopentyl-7-(cyclopentylmethyl)-5-methyl-7,8-dihydropteridin-6(5H)-one]

Ki (PI5P4Kβ): 100 to 280 nM
Ki (PI5P4Kα [1]): 30 to 90 nM
SMILES: CN1C(=O)[C@@H](CC2CCCC2)N(C2CCCC2)c2nc(Nc3ncc(C(=O)O)s3)ncc21 [7g, (R)-2-((8-cyclopentyl-7-(cyclopentylmethyl)-5-methyl-6-oxo-5,6,7,8-tetrahydropteridin-2-yl)amino)thiazole-5-carboxylic acid]

Ki (PI5P4Kβ): 80 to 160 nM
Ki (PI5P4Kα [1]): 110 to 220 nM
SMILES: CN1C(=O)[C@@H](CC2CCCC2)N(C2CCCC2)c2nc(Nc3csc(C(=O)O)c3)ncc21 [7h, (R)-4-((8-cyclopentyl-7-(cyclopentylmethyl)-5-methyl-6-oxo-5,6,7,8-tetrahydropteridin-2-yl)amino)thiophene-2-carboxylic acid]

Ki (PI5P4Kβ): 75 to 150 nM
Ki (PI5P4Kα [1]): 55 to 110 nM
SMILES: CN1C(=O)[C@@H](CC2CCCC2)N(C2CCCC2)c2nc(Nc3cc(F)c(C(=O)O)c(F)c3)ncc21 [7i, (R)-4-((8-cyclopentyl-7-(cyclopentylmethyl)-5-methyl-6-oxo-5,6,7,8-tetrahydropteridin-2-yl)amino)-2,6-difluorobenzoic acid]

Ki (PI5P4Kβ): 400 to 800 nM
Ki (PI5P4Kα [1]): 50 to 100 nM
SMILES: CN1C(=O)[C@@H](Cc2ccccn2)N(C2CCCC2)c2nc(Nc3ncc(C(=O)O)s3)ncc21 [7j, (R)-2-((8-cyclopentyl-5-methyl-6-oxo-7-(pyridin-2-ylmethyl)-5,6,7,8-tetrahydropteridin-2-yl)amino)thiazole-5-carboxylic acid]

Ki (PI5P4Kβ): 100 to 200 nM
SMILES: CN1C(=O)[C@@H](Cc2ccccn2)N(C2CCCC2)c2nc(Nc3ccc4[nH]nnc4c3)ncc21 [7k, (R)-2-((1H-benzo[d][1,2,3]triazol-5-yl)amino)-8-cyclopentyl-5-methyl-7-(pyridin-2-ylmethyl)-7,8-dihydropteridin-6(5H)-one]

Ki (PI5P4Kα [2]; competitive with ATP): ~1000 nM
Kd (PI5P4Kα [3]): ~1300 nM
SMILES: CC(C)CCN1c2nc(Nc3cc(F)c(O)c(F)c3)ncc2N(C)C(=O)C1C (stereo not shown) [BI-D1870]
ACC phosphorylation / AMPK activation (AMPK): did not increase; also recorded: did not induce

Kis for PI5P4Kα compared with BI-D1870 (PI5P4Kα [2]; ATP 10 μM): slightly higher
SMILES: CC[C@@H]1C(=O)N(C)c2cnc(Nc3ccc(C(=O)N[C@H]4CC[C@H](N5CCN(CC6CC6)CC5)CC4)cc3OC)nc2N1C(C)C [volasertib]

From US11773096B2, “Small-molecule PI5P4K alpha/beta inhibitors and methods of treatment using same” (YALE UNIVERSITY, priority 2018, dated 2023)
